Data published in US4136116A, “Tricyclic compounds” (Hoffmann-La Roche Inc., priority 1975, dated 1979).
Where a name gives a salt, the structure may show the parent alone.

Test system: salivation in rabbits
Test: Salivation inhibition in rabbits (pilocarpine-increased salivation; anticholinergic action)
Assay type: in vivo
Settings: light urethane narcosis, 3 mg/kg i.v., pilocarpine 5 mg/kg s.c.
Protocol: The low anticholinergic action can be shown by the lack of salivation inhibition in rabbits: The salivation in rabbits under light urethane narcosis was increased by pilocarpine injection (5 mg/kg. s.c.) and the amount of saliva was measured at 5-minute intervals. The inhibition of salivation is expressed as a percentage based upon the salivation of animals which only received pilocarpine.

Structure (SMILES) | % Inhibition of Salivation [%]
CNCCC=C1c2ccccc2C=Cc2c(C)cccc21.Cl [1-methyl-5-(3-methylaminopropylidene)-5H-dibenzo[a,d]cycloheptene hydrochloride] | 60
Cc1cccc2c1C=Cc1ccccc1C2=CCC[N+](C)(C)[O-] [1-methyl-5-(3-dimethylaminopropylidene)-5H-dibenzo[a,d]cycloheptene N-oxide hydrochloride] | 14
Cc1cccc2c1CCc1ccccc1C2=CCCN(C)C.Cl [1-methyl-10,11-dihydro-5-(3-dimethylaminopropylidene)-5H-dibenzo[a,d]cycloheptene hydrochloride] | 50
Cc1cccc2c1CCc1ccccc1C2CCCN(C)C.Cl (stereo not shown) [1-methyl-10,11-dihydro-5-(3-dimethylaminopropyl)-5H-dibenzo[a,d]cycloheptene hydrochloride] | 50
CNCCC=C1c2ccccc2CCc2c(C)cccc21.Cl [1-methyl-10,11-dihydro-5-(3-methylaminopropylidene)-5H-dibenzo [a,d]cycloheptene hydrochloride] | 50
CNCCCC1c2ccccc2CCc2c(C)cccc21.Cl (stereo not shown) [1-methyl-10,11-dihydro-5-(3-methylaminopropyl)-5H-dibenzo[a,d]cycloheptene hydrochloride] | 40
Cc1cccc2c1C=Cc1ccccc1C2=CCCN(C)C.Cl [1-methyl-5-(3-dimethylaminopropylidene)-5H-dibenzo[a,d]cycloheptene hydrochloride] | 60
